Reference: patent US20240140957A1, “BRIDGED COMPOUNDS AS KRAS G12D INHIBITOR AND DEGRADER AND THE USE THEREOF” (BeiGene Switzerland GmbH, priority 2021, published 2024)

Target: GDP-loaded KRAS G12D (Homo sapiens, UniProt P01116, G12D)
Assay: KRAS G12D Probe Displacement Assay
Assay type: binding
Details: KRAS G12D 0.5 nM, biotinylated probe 2 4 nM; Table 6 letters; read-out: KRAS G12D Probe Displacement Assay IC50 (class)

Chain of GDP-loaded KRAS G12D (P01116 1-188 isoform P01116-2 G12D): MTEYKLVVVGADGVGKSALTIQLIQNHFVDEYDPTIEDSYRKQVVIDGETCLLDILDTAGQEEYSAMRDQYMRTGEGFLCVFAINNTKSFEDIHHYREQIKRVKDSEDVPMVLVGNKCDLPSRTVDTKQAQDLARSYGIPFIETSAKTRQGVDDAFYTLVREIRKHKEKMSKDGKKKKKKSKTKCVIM

| SMILES | IC50 |
| --- | --- |
| Nc1nc2c(-c3c(C(F)(F)F)cc4c(N5CC6CCC(C5)N6)nc(OCC5(O)CCOCC5)nc4c3F)ccc(F)c2s1 [Example E221, 4-(((7-(2-amino-7-fluorobenzo[d]thiazol-4-yl)-4-(3,8-diazabicyclo [3.2.1]octan-3-yl)-8-fluoro-6-(trifluoromethyl)quinazolin-2-yl)oxy)methyl)tetrahydro-2H-pyran-4-ol] | < 50 nM |
| Nc1nc2c(-c3c(C(F)(F)F)cc4c(N5CC6CCC(C5)N6)nc(OCC5CCOCC5)nc4c3F)ccc(F)c2s1 [Example E144, 4-(4-(3,8-diazabicyclo[3.2.1]octan-3-yl)-8-fluoro-2-((tetrahydro-2H-pyran-4-yl)methoxy)-6-(trifluoromethyl)quinazolin-7-yl)-7-fluorobenzo[d]thiazol-2-amine] | < 50 nM |
| Cc1cc(N)nc(-c2c(Cl)cc3c(N4CC5CCC(C4)N5)nc(OCC4(C#N)CCOC4)nc3c2F)c1C(F)(F)F (stereo not drawn) [Example E206, 3-(((7-(6-amino-4-methyl-3-(trifluoromethyl)pyridin-2-yl)-4-(3,8-diazabicyclo[3.2.1]octan-3-yl)-6-chloro-8-fluoroquinazolin-2-yl)oxy)methyl)tetrahydrofuran-3-carbonitrile] | < 50 nM |
| Nc1nc2c(-c3c(C(F)(F)F)cc4c(N5CC6CCC(C5)N6)nc(OCC56COC(C5)C6)nc4c3F)ccc(F)c2s1 [Example E152, 4-(2-((2-oxabicyclo[2.1.1]hexan-4-yl)methoxy)-4-(3,8-diazabicyclo[3.2.1]octan-3-yl)-8-fluoro-6-(trifluoromethyl)quinazolin-7-yl)-7-fluorobenzo[d] thiazol-2-amine] | < 50 nM |
| Cc1cc(N)nc(-c2c(Cl)cc3c(N4CC5CCC(C4)N5)nc(OCC(C#N)(CO)CO)nc3c2F)c1C(F)(F)F [Example E205, 3-((7-(6-amino-4-methyl-3-(trifluoromethyl)pyridin-2-yl)-4-(3,8-diazabicyclo [3.2.1]octan-3-yl)-6-chloro-8-fluoroquinazolin-2-yl)oxy)-2,2-bis(hydroxymethyl) propanenitrile] | < 50 nM |
| Cc1cc(N)nc(-c2c(Cl)cc3c(N4CC5CCC(C4)N5)nc(OCC4(CO)CCCC4)nc3c2F)c1C(F)(F)F [Example E198, (1-(((7-(6-amino-4-methyl-3-(trifluoromethyl)pyridin-2-yl)-4-(3,8-diazabicyclo[3.2.1]octan-3-yl)-6-chloro-8-fluoroquinazolin-2-yl)oxy)methyl)cyclopentyl) methanol] | 50 to 100 nM |
| Nc1nc2c(-c3c(C(F)(F)F)cc4c(N5CC6CCC(C5)N6)nc(OCC5CC6CCC(C5)O6)nc4c3F)ccc(F)c2s1 (stereo not drawn) [Example E163, 4-(2-((8-oxabicyclo[3.2.1]octan-3-yl)methoxy)-4-(3,8-diazabicyclo[3.2.1]octan-3-yl)-8-fluoro-6-(trifluoromethyl)quinazolin-7-yl)-7-fluorobenzo[d]thiazol-2-amine] | < 50 nM |
| COC1CC(COc2nc(N3CC4CCC(C3)N4)c3cc(C(F)(F)F)c(-c4ccc(F)c5sc(N)nc45)c(F)c3n2)C1 (stereo not drawn) [Example E150, 4-(4-(3,8-diazabicyclo[3.2.1]octan-3-yl)-8-fluoro-2-((3-methoxycyclobutyl)methoxy)-6-(trifluoromethyl)quinazolin-7-yl)-7-fluorobenzo[d]thiazol-2-amine] | < 50 nM |
| CN1C[C@H](F)C[C@H]1COc1nc(N2CC3CCC(C2)N3)c2cc(C(F)(F)F)c(-c3ccc(F)c4sc(N)c(C#N)c34)c(F)c2n1 [Example E111, 4-(4-(3,8-diazabicyclo[3.2.1]octan-3-yl)-8-fluoro-2-(((2S,4R)-4-fluoro-1-methylpyrrolidin-2-yl)methoxy)-6-(trifluoromethyl)quinazolin-7-yl)-2-amino-7-fluoro benzo[b]thiophene-3-carbonitrile] | < 50 nM |
| CC(=O)N1CCCC(COc2nc(N3CC4CCC(C3)N4)c3cc(C(F)(F)F)c(-c4ccc(F)c5sc(N)nc45)c(F)c3n2)C1 (stereo not drawn) [Example E223, 1-(3-(((7-(2-amino-7-fluorobenzo[d]thiazol-4-yl)-4-(3,8-diazabicyclo[3.2.1]octan-3-yl)-8-fluoro-6-(trifluoromethyl)quinazolin-2-yl)oxy)methyl)piperidin-1-yl)ethan-1-one] | < 50 nM |
| Cc1cc(N)nc(-c2c(Cl)cc3c(N4C5CCC4CNC5)nc(OC[C@@]45CCCN4C[C@H](F)C5)nc3c2F)c1C(F)(F)F [Example E96] | < 50 nM |
| Cc1cc(N)nc(-c2c(Cl)cc3c(N4CC5CCC(C4)N5)nc(OCC4(C#N)CCOCC4)nc3c2F)c1C(F)(F)F [Example E195, 4-(((7-(6-amino-4-methyl-3-(trifluoromethyl)pyridin-2-yl)-4-(3,8-diazabicyclo[3.2.1]octan-3-yl)-6-chloro-8-fluoroquinazolin-2-yl)oxy)methyl)tetrahydro-2H-pyran-4-carbonitrile] | < 50 nM |

Results, then the molecule that gave them:

| IC50 | SMILES |
| --- | --- |
| < 50 nM | CC1(COc2nc(N3CC4CCC(C3)N4)c3cc(C(F)(F)F)c(-c4ccc(F)c5sc(N)nc45)c(F)c3n2)CCO1 (stereo not drawn) [Example E166, 4-(4-(3,8-diazabicyclo[3.2.1]octan-3-yl)-8-fluoro-2-((2-methyloxetan-2-yl)methoxy)-6-(trifluoromethyl)quinazolin-7-yl)-7-fluorobenzo[d]thiazol-2-amine] |
| < 50 nM | N#CC1(COc2nc(N3CC4CCC(C3)N4)c3cc(C(F)(F)F)c(-c4ccc(F)c5sc(N)nc45)c(F)c3n2)CCCC1 [Example E192, 1-(((7-(2-amino-7-fluorobenzo[d]thiazol-4-yl)-4-(3,8-diazabicyclo [3.2.1]octan-3-yl)-8-fluoro-6-(trifluoromethyl)quinazolin-2-yl)oxy)methyl)cyclopentane-1-carbonitrile] |
| < 50 nM | CC(CO)COc1nc(N2CC3CCC(C2)N3)c2cc(C(F)(F)F)c(-c3ccc(F)c4sc(N)nc34)c(F)c2n1 (stereo not drawn) [Example E142, 3-((7-(2-amino-7-fluorobenzo[d]thiazol-4-yl)-4-(3,8-diazabicyclo [3.2.1]octan-3-yl)-8-fluoro-6-(trifluoromethyl)quinazolin-2-yl)oxy)-2-methylpropan-1-ol] |
| < 50 nM | Cc1cc2[nH]ncc2c(-c2c(Cl)cc3c(N4CC5CCC(C4)N5)nc(OC[C@@]45CCCN4C[C@H](F)C5)nc3c2F)c1Cl [Example E120, 4-(3,8-diazabicyclo[3.2.1]octan-3-yl)-6-chloro-7-(5-chloro-6-methyl-1H-indazol-4-yl)-8-fluoro-2-(((2R,7aS)-2-fluorotetrahydro-1H-pyrrolizin-7a(5H)-yl)methoxy)quinazoline] |
| < 50 nM | N#CC12CC(COc3nc(N4CC5CCC(C4)N5)c4cc(C(F)(F)F)c(-c5ccc(F)c6sc(N)nc56)c(F)c4n3)(C1)C2 [Example E186, 3-(((7-(2-amino-7-fluorobenzo[d]thiazol-4-yl)-4-(3,8-diazabicyclo [3.2.1]octan-3-yl)-8-fluoro-6-(trifluoromethyl)quinazolin-2-yl)oxy)methyl)bicyclo[1.1.1] pentane-1-carbonitrile] |
| < 50 nM | Cc1cc(N)nc(-c2c(Cl)cc3c(N4CC5CCC(C4)N5)nc(OCC(C)(C)CO)nc3c2F)c1C(F)(F)F [Example E193, 3-((7-(6-amino-4-methyl-3-(trifluoromethyl)pyridin-2-yl)-4-(3,8-diazabicyclo[3.2.1]octan-3-yl)-6-chloro-8-fluoroquinazolin-2-yl)oxy)-2,2-dimethylpropan-1-ol] |
